Assay results taken from PubChem BioAssay AID248 (DTP/NCI, 2004).
“And” between values parts separate entries of the source, which are not always exact repeats. Identical values can stand only once. Toxic doses and inconclusive results are not listed. Rule as the data show it: active = T/C of 150% or more; inactive = T/C below 125%.

Test system: L1210 leukemia ip in BDF1 mice, survival T/C
Assay: NCI In Vivo Anticancer Drug Screen. Data for tumor model L1210 Leukemia (intraperitoneal) in B6D2F1 (BDF1) mice
Settings: endpoint: mean survival time, higher = longer survival
Procedure, shortened: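 Tumor was transplanted into mice, which were then dosed with test compound or vehicle alone. Survival was recorded for each group, and the treated figure was expressed relative to the control figure.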

[1] = dose: 100.0 mg/kg/injection, schedule: Q04DX003 (ip), vehicle: saline with Tween-80
[2] = dose: 100.0 mg/kg/injection, schedule: Q04DX003 (ip), vehicle: saline
[3] = dose: 200.0 mg/kg/injection, schedule: Q04DX003 (ip), vehicle: saline
[4] = dose: 400.0 mg/kg/injection, schedule: Q04DX003 (ip), vehicle: saline
[5] = dose: 25.0 mg/kg/injection, schedule: Q01DX009 (ip), vehicle: saline
[6] = dose: 50.0 mg/kg/injection, schedule: Q01DX009 (ip), vehicle: saline
[7] = dose: 100.0 mg/kg/injection, schedule: Q01DX009 (ip), vehicle: Klucel (hydroxypropylcellulose) (HPC)
[8] = dose: 100.0 mg/kg/injection, schedule: Q04DX003 (ip), vehicle: Klucel (hydroxypropylcellulose) (HPC)
[9] = dose: 200.0 mg/kg/injection, schedule: Q01DX009 (ip), vehicle: Klucel (hydroxypropylcellulose) (HPC)
[10] = dose: 200.0 mg/kg/injection, schedule: Q04DX003 (ip), vehicle: Klucel (hydroxypropylcellulose) (HPC)
[11] = dose: 400.0 mg/kg/injection, schedule: Q01DX009 (ip), vehicle: Klucel (hydroxypropylcellulose) (HPC)
[12] = dose: 400.0 mg/kg/injection, schedule: Q04DX003 (ip), vehicle: Klucel (hydroxypropylcellulose) (HPC)
[13] = dose: 100.0 mg/kg/injection, schedule: Q01DX001 (ip), vehicle: saline
[14] = dose: 200.0 mg/kg/injection, schedule: Q01DX001 (ip), vehicle: saline
[15] = dose: 100.0 mg/kg/injection, schedule: Q01DX001 (ip), vehicle: Klucel (hydroxypropylcellulose) (HPC)
[16] = dose: 200.0 mg/kg/injection, schedule: Q01DX009 (ip), vehicle: saline
[17] = dose: 400.0 mg/kg/injection, schedule: Q01DX009 (ip), vehicle: saline
[18] = dose: 12.5 mg/kg/injection, schedule: Q04DX003 (ip), vehicle: saline
[19] = dose: 25.0 mg/kg/injection, schedule: Q04DX003 (ip), vehicle: saline
[20] = dose: 50.0 mg/kg/injection, schedule: Q04DX003 (ip), vehicle: saline
[21] = dose: 100.0 mg/kg/injection, schedule: Q01DX009 (ip), vehicle: saline

Measured: T/C

NC1=Nc2ccccc2CS1
inactive: dose: 18.8 mg/kg/injection, schedule: Q04DX003 (ip), vehicle: saline 95 % of control | dose: 37.5 mg/kg/injection, schedule: Q04DX003 (ip), vehicle: saline 101 % of control

O=C(/C(=C\c1ccccc1)N1CCOCC1)c1ccc(Cl)cc1
inactive: [1] 92 % of control

NC(CSCc1cc(=O)[nH]c(=O)[nH]1)C(=O)O (configuration not stated)
inactive: [2] 97 % of control | [3] 97 % of control | [4] 95 % of control

CSc1ncnc2c1C[P+](Cc1ccccc1)(c1ccccc1)CC2 (configuration not stated)
inactive: dose: 100.0 mg/kg/injection, schedule: Q04DX002 (ip), vehicle: saline with Tween-80 103 % of control

CC(C)=CC(=O)OC1C2C(C)C(=O)OC2C(O)C(C)C2C=CC(=O)C21C (configuration not stated)
inactive: dose: 6.25 mg/kg/injection, schedule: Q01DX009 (ip), vehicle: saline with Tween-80 95 % of control | dose: 12.5 mg/kg/injection, schedule: Q01DX009 (ip), vehicle: saline with Tween-80 97 % of control | dose: 25.0 mg/kg/injection, schedule: Q01DX009 (ip), vehicle: Klucel (hydroxypropylcellulose) (HPC) 97 % of control | dose: 25.0 mg/kg/injection, schedule: Q01DX009 (ip), vehicle: saline with Tween-80 103 % of control | [5] 93 % of control | dose: 50.0 mg/kg/injection, schedule: Q01DX009 (ip), vehicle: Klucel (hydroxypropylcellulose) (HPC) 94 % of control | dose: 50.0 mg/kg/injection, schedule: Q01DX009 (ip), vehicle: saline with Tween-80 103 % of control | [6] 100 % of control

O=S(=O)(O)c1ccc(Nc2ccccc2)cc1
inactive: [7] 103 % of control and 100 % of control | [8] 107 % of control and 103 % of control | [9] 103 % of control and 102 % of control | [10] 96 % of control and 103 % of control | [11] 108 % of control and 102 % of control | [12] 102 % of control and 101 % of control

CCCCc1ccc2nc3cc4ccccc4cc3nc2c1
inactive: dose: 50.0 mg/kg/injection, schedule: Q01DX001 (ip), vehicle: saline 95 % of control | [13] 98 % of control | [14] 93 % of control | dose: 400.0 mg/kg/injection, schedule: Q01DX001 (ip), vehicle: saline 110 % of control

Cc1ccc(NC2=NCCO2)cc1
inactive: dose: 50.0 mg/kg/injection, schedule: Q01DX001 (ip), vehicle: carboxymethylcellulose (CMC) 104 % of control | dose: 100.0 mg/kg/injection, schedule: Q01DX001 (ip), vehicle: carboxymethylcellulose (CMC) 96 % of control | dose: 200.0 mg/kg/injection, schedule: Q01DX001 (ip), vehicle: carboxymethylcellulose (CMC) 98 % of control

NC(N)=Nc1cccc(OCCCOc2ccccc2)c1
inactive: dose: 150.0 mg/kg/injection, schedule: Q01DX001 (ip), vehicle: saline with Tween-80 88 % of control | dose: 300.0 mg/kg/injection, schedule: Q01DX001 (ip), vehicle: saline with Tween-80 94 % of control

O=C(O)CC(c1ccccc1)n1ccc(=O)[nH]c1=O (configuration not stated)
inactive: dose: 25.0 mg/kg/injection, schedule: Q01DX001 (ip), vehicle: Klucel (hydroxypropylcellulose) (HPC) 103 % of control | dose: 50.0 mg/kg/injection, schedule: Q01DX001 (ip), vehicle: Klucel (hydroxypropylcellulose) (HPC) 106 % of control | [15] 101 % of control

Cc1cccc(OC(=O)Nc2cccc(Cl)c2)c1C
inactive: [15] 94 % of control | [7] 94 % of control and 100 % of control | dose: 100.0 mg/kg/injection, schedule: Q04DX002 (ip), vehicle: Klucel (hydroxypropylcellulose) (HPC) 102 % of control and 105 % of control | [8] 101 % of control | dose: 200.0 mg/kg/injection, schedule: Q01DX001 (ip), vehicle: Klucel (hydroxypropylcellulose) (HPC) 92 % of control | [9] 98 % of control and 100 % of control | dose: 200.0 mg/kg/injection, schedule: Q04DX002 (ip), vehicle: Klucel (hydroxypropylcellulose) (HPC) 96 % of control and 98 % of control | [10] 97 % of control | dose: 400.0 mg/kg/injection, schedule: Q01DX001 (ip), vehicle: Klucel (hydroxypropylcellulose) (HPC) 92 % of control | [11] 94 % of control and 96 % of control | dose: 400.0 mg/kg/injection, schedule: Q04DX002 (ip), vehicle: Klucel (hydroxypropylcellulose) (HPC) 107 % of control and 109 % of control | [12] 93 % of control

COC(=O)c1cc(Cl)cc(C(=O)OC)n1
inactive: [2] 100 % of control | [16] 94 % of control | [3] 103 % of control | [17] 100 % of control | [4] 99 % of control

CCC(=O)c1ccc2c(c1)N(C(C)CN(C)C)c1ccccc1S2 (configuration not stated)
inactive: dose: 1.56 mg/kg/injection, schedule: Q03HX024 (ip), vehicle: saline 100 % of control | dose: 3.12 mg/kg/injection, schedule: Q03HX024 (ip), vehicle: saline 102 % of control | dose: 6.25 mg/kg/injection, schedule: Q01DX009 (ip), vehicle: saline 100 % of control and 106 % of control | dose: 6.25 mg/kg/injection, schedule: Q03HX024 (ip), vehicle: saline 100 % of control | dose: 6.25 mg/kg/injection, schedule: Q04DX003 (ip), vehicle: saline 101 % of control | dose: 12.5 mg/kg/injection, schedule: Q01DX009 (ip), vehicle: saline 104 % of control and 109 % of control and 110 % of control | dose: 12.5 mg/kg/injection, schedule: Q03HX024 (ip), vehicle: saline 100 % of control | [18] 103 % of control | dose: 18.75 mg/kg/injection, schedule: Q01DX001 (ip), vehicle: saline 107 % of control | [5] 106 % of control and 110 % of control and 116 % of control | [19] 103 % of control and 104 % of control | dose: 37.5 mg/kg/injection, schedule: Q01DX001 (ip), vehicle: saline 115 % of control | [6] 109 % of control and 118 % of control | [20] 109 % of control and 120 % of control | dose: 75.0 mg/kg/injection, schedule: Q01DX001 (ip), vehicle: saline 109 % of control | [21] 90 % of control | dose: 150.0 mg/kg/injection, schedule: Q01DX001 (ip), vehicle: saline 96 % of control

O=S(=O)(Cc1ccc(Cl)cc1)Cc1ccc(Cl)cc1
inactive: dose: 100.0 mg/kg/injection, schedule: Q01DX009 (ip), vehicle: saline sonified 93 % of control | [8] 95 % of control | dose: 200.0 mg/kg/injection, schedule: Q01DX009 (ip), vehicle: saline sonified 93 % of control | [10] 92 % of control | dose: 400.0 mg/kg/injection, schedule: Q01DX009 (ip), vehicle: saline sonified 93 % of control | [12] 103 % of control

CC(=O)O[C@]1(C(C)=O)CC[C@H]2[C@@H]3CCC4=CC(=O)[C@H](C)C[C@]4(C)[C@@]3(F)[C@@H](O)C[C@@]21C
inactive: dose: 25.0 mg/kg/injection, schedule: Q01DX015 (sc), vehicle: steriod suspending solution 100 % of control | dose: 50.0 mg/kg/injection, schedule: Q01DX015 (sc), vehicle: steriod suspending solution 104 % of control | dose: 100.0 mg/kg/injection, schedule: Q01DX015 (sc), vehicle: steriod suspending solution 100 % of control | dose: 200.0 mg/kg/injection, schedule: Q01DX015 (sc), vehicle: steriod suspending solution 104 % of control and 115 % of control | dose: 400.0 mg/kg/injection, schedule: Q01DX015 (sc), vehicle: steriod suspending solution 109 % of control | dose: 800.0 mg/kg/injection, schedule: Q01DX015 (sc), vehicle: steriod suspending solution 110 % of control

CCN(CC)CC(=O)NCC(CCCCN1CCCCC1)(c1cccc2ccccc12)C(C)C (configuration not stated)
inactive: [18] 104 % of control | [19] 102 % of control | [20] 102 % of control

O=C(O)CCCCCCCCCCCCCCCO
inactive: [1] 96 % of control | dose: 200.0 mg/kg/injection, schedule: Q04DX003 (ip), vehicle: saline with Tween-80 96 % of control | dose: 400.0 mg/kg/injection, schedule: Q04DX003 (ip), vehicle: saline with Tween-80 91 % of control

C=CCSc1ccc(Cl)cc1
inactive: [13] 105 % of control | [14] 103 % of control

Br/C1=C/CCCCCC1
inactive: dose: 75.0 mg/kg/injection, schedule: Q04DX003 (ip), vehicle: saline 102 % of control | dose: 150.0 mg/kg/injection, schedule: Q04DX003 (ip), vehicle: saline 96 % of control

C[n+]1c(O)c(C(=O)CCl)n2ccccc21
inactive: [21] 94 % of control | [16] 91 % of control | [17] 92 % of control
